Experimental findings from patent US20250325497A1, “OPHTHALMIC COMPOSITION COMPRISING RESVERATROL FOR TREATING DRY EYE SYNDROME” (Laboratoires THEA, priority 2022, published 2025) are described below.

For the series, the system named is reconstituted Human Corneal Epithelium (HCE). Briefly: Preliminary cytotoxicity: modified MTT viability test on reconstituted HCE. The series is classed as cell-based. Particulars: for MTT: Cellular viability (%): relative to negative control. How it is done: An initial study on human corneal epithelium (HCE) was conducted to check the cytotoxicity of a selection of tear substitutes in order to further assess their protection against superficial corneal epithelium oxidative stress damages induced by UVA+B light (290-400 nm).
The preliminary cytotoxicity was performed after 4 h acute exposure and after 8 h exposure (repeated twice a day with the final readout the day after; 0.015 J/cm^2) to tear substitutes using 2 assays: MTT test and TUNEL assay.
The preliminary cytotoxicity was tested in vitro for the following tear substitutes: • Composition according to Example I • Visu XL (market reference containing 0.1% Coenzyme Q10, 0.1% cross-linked hyaluronic acid (HA), 0.5% Vitamin E TPGS; pH 6.9) on the HCE model compared to Benzalkonium Chloride (BAK) 0.1% solution (positive control) and saline solution (NaCl 0.9%; negative control).
An EPISKIN reconstituted Human Corneal Epithelium (HCE) of 0.5 cm^2 was used for the evaluation. Epithelial human Immortalized cells (HICEC) were deposed on a polycarbonate filter and cultured at the air-liquid interface for 5 days in a chemically defined medium in order to form a structured epithelium. The inserts containing the tissues at day 5 (thickness: 55 μm; 5.5 cell layers) were shipped at room temperature in a multi-well plate filled with an agarose nutrient solution in which they were embedded.
The HCEs were placed in 6 well plates with 1 mL maintenance medium overnight in incubator CO2 at 37° C. and 90% humidity. The tissues were then used the day after, following acute 4 h exposure and 8 h repeated exposure and overnight protocol. […]
Two exposure protocols were carried on: • acute exposure protocol (4 h): 4 h exposure followed by tissues rinsing • repeated exposure and overnight protocol (8 h+overnight): twice daily exposure, with at least 4 hours between the two treatments and readout after overnight incubation. […]
The Accuracy of the spectro-photometrical measurements are in the range between 0 and 2 OD: <+/−(1%+10 mOD). The Raw data of OD are directly recorded in the Microplate autoreader (TECAN INFINITE M-200) further processed by Software Magellan 6.5.
The mean of blank OD has been subtracted to every single OD value. The viability of each biological replicate has been calculated dividing the respective OD mean for the optical density average of the negative control (NC) Biological Replicates. The viability % mean of tissues treated with the same substance has been calculated. […]
Test substance meets the acceptance criteria if the Standard Deviation value (SD) of the cell viability % (expressed as percentage compared to NC) between the 2 tissue replicates is <18%.
For orientation: Tetrazolium dyes change colour on reduction, which living cells bring about.

As to Benzalkonium Chloride [BAK 0.1%], the “MTT: Cellular viability (%)” value is on record as 9.98% (4 H acute exposure) and 0.95% (8 H+ OVERNIGHT repeated exposure). Moreover, the “Cytotoxicity by MTT test (in words)” value is, setting by setting: (4 h acute exposure) “severe cytotoxicity”; (8 h followed by overnight incubation, cut-off 60% cell viability) “severe cytotoxicity”.
